Data from patent US10118922B2 (Janssen Pharmaceutica NV, priority 2013, dated 2018).

Experiments:
[1] = molecular target: T1, Human GPR120 short form (Homo sapiens, UniProt Q5NUL3); assay: Human GPR120 calcium flux assay, Procedure Calcium A; type: cell-based; conditions: HEK-293 cells, FLIPR, 2500 cells/well; read-out: GPR120 Ca2+ Assay A EC50
T1 construct: expressed in transfected cells
T1 sequence (Q5NUL3 1-361): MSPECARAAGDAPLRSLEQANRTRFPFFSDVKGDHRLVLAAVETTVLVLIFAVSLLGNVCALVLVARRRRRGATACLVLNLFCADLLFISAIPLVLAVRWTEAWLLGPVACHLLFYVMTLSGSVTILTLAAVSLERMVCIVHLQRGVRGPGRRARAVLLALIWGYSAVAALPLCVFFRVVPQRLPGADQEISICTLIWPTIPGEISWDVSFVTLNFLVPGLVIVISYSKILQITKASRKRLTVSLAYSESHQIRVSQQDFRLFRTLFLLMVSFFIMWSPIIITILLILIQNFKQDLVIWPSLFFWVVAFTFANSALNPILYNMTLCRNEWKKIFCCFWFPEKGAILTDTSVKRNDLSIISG
Protocol: These cells are first loaded with the Ca^+2 sensitive dye, Fluo-4 NR. Upon stimulation, intracellular released Ca^+2 can bind to the dye and alter its fluorescence intensity. This increase in fluorescence signal, and thus the flux in intracellular [Ca^2+], is detected and quantitated by fluorescence imaging using a FLIPR reader. The effect of the agonist is measured as a function of concentration and used to calculate an EC50 based upon a response curve.
In this procedure 2500 cells/well were employed.
A Human GPR120 clone (Genbank accession number NM_001195755.1) was placed into the pcDNA3.1 mammalian expression vector carrying the neomycin resistance gene. A stable mammalian cell was generated by placing the above clone into a HEK293 background. […] Cells were split 2 times a week to keep the cells in the log-phase growth.
In preparation for the assay, HEK cells stably transfected with Human GPR120 (2.5K cells per well in 25 uL growth medium) were seeded into 384-well plates and then incubated overnight (37° C., 5% CO2). The next day, the media was changed to 20 μL assay buffer and the cell starved for 1 h at 37° C. The dye loading solution (2× dye) was prepared using 10 mL assay buffer, 100 μL of 250 mM probenecid, 1 bottle of Component A, and 20 μl of dye in DMSO. Twenty μL of the 2× dye loading buffer was then added to each well. The plates were incubated at 37° C. for 30 min, then at room temperature for an additional 15 minutes, before performing the assay on FLIPR.
The assay was performed on a FLIPR plate reader using the following parameters. Baseline was read for 10 seconds at 1 sec intervals. The program was set to transfer 10 μL of ligand from compound plate to cell plate after baseline reading. Aspiration was executed at: 10 μL/sec speed, 4.6 μL height; Dispensing was executed at: 30 μL/sec speed, 45 μL height. After compound addition, each well was read for 300 sec, with measurements collected at 1 sec intervals.
The kinetic data from the FLIPR was based upon a 5 minute window for data collection. The fluorescence of each sample well was used for individual calculations of a normalized RFU value, which was defined as maximum response minus the minimum response. […] The Fitting Equation was: Y=Bottom+(Top-Bottom)/(1+10^((Log EC50−X)*HillSlope)), where X is the log of the concentration and Y is the response.

[2] = molecular target: T2, long form of human GPR120 (Homo sapiens, UniProt Q5NUL3); assay: Human GPR120 DiscoveRx PathHunter beta-arrestin assay, Procedure β-arrestin A; type: cell-based; conditions: PathHunter CHO-K1 GPR120 β-Arrestin cells, 3000 cells per well; read-out: hGPR120 β-arrestin A EC50
T2 construct: host or cells: PathHunter CHO-K1 GPR120 β-Arrestin Cell Line
T2 sequence (Q5NUL3 1-377 isoform Q5NUL3-1): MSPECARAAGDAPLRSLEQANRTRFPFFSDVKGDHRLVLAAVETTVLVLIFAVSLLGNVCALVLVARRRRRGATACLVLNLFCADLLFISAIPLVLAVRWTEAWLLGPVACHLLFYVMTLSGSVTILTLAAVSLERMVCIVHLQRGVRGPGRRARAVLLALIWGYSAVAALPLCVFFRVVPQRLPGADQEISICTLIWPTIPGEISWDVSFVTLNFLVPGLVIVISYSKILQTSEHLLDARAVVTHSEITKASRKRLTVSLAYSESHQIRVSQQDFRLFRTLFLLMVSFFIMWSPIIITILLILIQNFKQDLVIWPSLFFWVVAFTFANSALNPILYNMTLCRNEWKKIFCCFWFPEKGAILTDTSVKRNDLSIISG
Excerpt: The binding of an agonist (medium/long chain fatty acids or small molecule agonists) to the G-protein-coupled receptor GPR120 activates phospholipase C, leading to release of intracellular Ca^+2 through the generation of inositol 1,4,5-trisphosphate (InsP3 or IP3). GPR120 activation can also trigger intracellular signaling via recruitment of Beta-Arrestin. In the present method, agonist-induced activation of the human GPR120 receptor is monitored through the use of PathHunter CHO-K1 GPR120 Beta-Arrestin Cell Line engineered by DiscoveRx, as detailed below. The cell lines are designed to co-express both the ProLink/Enzyme Donor (PK)-tagged GPCR and the Enzyme […] (EA)-tagged Beta-Arrestin fusion proteins. Upon GPR120 receptor stimulation/activation, the EA-tagged Beta-Arrestin portion is translocated to the tagged receptor, where the two enzyme fragments are brought within close proximity. Under these conditions, these fragments can interact and form an active Beta-gal enzyme complex through Enzyme Fragment Complementation (EFC). […] This in vitro assay therefore serves to assess compound agonist activity of the GPR120.
In Procedure β-arrestin A, the cell used were PathHunter CHO-K1 GPR120 β-Arrestin Cell Line, expressing the long form of human GPR120 (Genbank accession number NM_181745), with 3000 cells per well.
The selected CHO-K1 GPR120 β-Arrestin cells were cultured in Ham's F12 media supplemented with 10% fetal bovine serum (FBS), 1% Glutamine, 1×p/s, 800 μg/mL G418 and 300 μg/mL Hygromycin B (for selection). Cell stocks were maintained and grown in a sub-confluent state using standard cell culture procedures. The day before the experiment, the cells were harvested with non-enzymatic cell dissociation buffer and re-suspended in complete growth media at the desired concentration. […] The seeded plates were incubated overnight at 37° C.
On the day of the experiment, the Assay Buffer containing (a) HBSS with Ca^++ and Mg^++, (b) 20 mM HEPES, and (c) 0.1% BSA stabilizer (pH 7.4) was prepared. The growth medium was gently removed from the cell plates and 20 μL of Assay Buffer added to each well. The plate was then incubated at 37° C. for 60 min. […] Five μL of compound dilution was then added to each well and the plate incubated at 37° C. for 90 min. The detection reagents were prepared according to the manufacture's instruction. Twelve μL of the detection reagents were added to each well and the plate incubated at room temperature for 60 min.
The % activity relative to the positive control was calculated using the following equation:
The Fitting Equation was: Y=Bottom+(Top-Bottom)/(1+10^((Log EC50−X)*HillSlope)), where X is the log of the concentration and Y is the response.

[3] = tested on: C57b16 mouse; assay: C57b16 mouse OGTT; type: in vivo; conditions: dosed 30 min prior to glucose PO 3 g/kg
Protocol: (§1) Male, C57bl/6J Mice were ordered in at 8 weeks of age from Jackson Labs. Individual mice weighed anywhere in the range of 25-30 grams on study day. The mice were fasted, with removal of food occurring at 7 am on the morning of the study. Animals were moved into the room at 10:00 am, to give them time to acclimate. Glucose (insulin syringes) was drawn up either the night before or the morning of the study. Glucose was dosed (IP) at 1.5 g/kg at 7.5 ml/kg (20% glucose straight TEKNOVA, 250 ml sterile bottle w/ catalogue number G0525). Test compounds were kept spinning and were only drawn into the syringes prior to study commencement. Animals were bled via tail snip to determine basal glucose levels prior to dosing of treatments. An Ascensia BREEZE Blood Glucose Monitoring System by Bayer (using unique 10-test disks) was used for determining glucose levels. The bleeds started at approximately 12:45 pm and dosing started, at 1-minute intervals, immediately after. All groups were dosed 30 minutes prior to glucose administration at a dose volume of 10 ml/kg (the dose volume was calculated separately for each individual animal). Thirty minutes after the first dose animals were bled again for a second baseline, or T=0, and immediately dosed with glucose via an i.p. injection. The exact dose volume for glucose was also calculated separately for each individual animal. Glucose measurements were taken at −30 min prior to compound dose, at t=0 (immediately prior to glucose dose), and at 15, 30, 45, 60, 90 min post glucose dose.
(§2) Glucose values were entered into an Excel sheet and graphed in GraphPad Prism. The following were calculated from Prism: Change from −30 to 0 BSLN Glucose, Raw Glucose AUC −30 to 90 min, Delta Glucose AUC −30 to 90 min, Raw Glucose AUC 0 to 90 min, Delta Glucose AUC 0 to 90 min.
The assay design is the same as that described above for the C57b16 mouse IPGTT. The difference is that glucose was dosed PO at 3 g/kg, 7.5 ml/kg of 40% glucose.

[4] = tested on: C57bl/6J Mice; assay: GPR120 C57bl6 mouse IPGTT; type: in vivo; conditions: dosed 30 min prior to glucose IP 1.5 g/kg
Protocol: as §1, §2

Compound | EC50 [1] | EC50 [2] | C57 OGTT 3 mg/kg [3] | C57 IPGTT 3 mg/kg [4] | C57 IPGTT 10 mg/kg [4]
CCc1ccc(-c2cc(F)sc2COc2c(F)cc(CCC(=O)O)cc2F)cc1 [Cpd 7] | 101 nM | 209 nM |  |  | 
COc1ccc(-c2csc(C(F)(F)F)c2COc2c(F)cc(CCC(=O)O)cc2F)cn1 [Cpd 42, 3-(3,5-difluoro-4-((4-(6-methoxypyridin-3-yl)-2-(trifluoromethyl)thiophen-3-yl)methoxy)phenyl)propanoic acid] |  |  | −44 | −14 | 
OCCCc1cc(F)c(OCc2c(-c3ccc(Cl)cc3)csc2C(F)(F)F)c(F)c1 [Cpd 46, 3-(4-[[4-(4-chlorophenyl)-2-(trifluoromethyl)thiophen-3-yl]methoxy]-3,5-difluorophenyl)propan-1-ol] |  |  | −49 | −26 | −75
CCc1ccc(-c2snc(Cl)c2COc2ccc(CCC(=O)O)c(C)c2C)cc1 [Cpd 85, 3-(4-[[3-chloro-5-(4-ethylphenyl)-1,2-thiazol-4-yl]methoxy]-2,3-dimethylphenyl)propanoic acid] |  |  | −49 | −29 | −48
OCCCc1cc(F)c(OCc2c(-c3ccc(Cl)cc3)nsc2C(F)(F)F)c(F)c1 [Cpd 100, 3-(4-[[3-(4-chlorophenyl)-5-(trifluoromethyl)-1,2-thiazol-4-yl]methoxy]-3,5-difluorophenyl)propan-1-ol] |  |  | −39 |  | −42
Cc1c(CCC(=O)O)ccc(OCc2c(-c3ccc(Cl)cc3)nsc2C(F)(F)F)c1C [Cpd 142, 3-(4-((3-(4-chlorophenyl)-5-(trifluoromethyl)isothiazol-4-yl)methoxy)-2,3-dimethylphenyl)propanoic acid] |  |  | −49 | −34 | −61
O=C(O)CCc1cc(F)c(OCc2c(-c3ccc(C4CC4)cc3)nsc2C(F)(F)F)c(F)c1 [Cpd 160, 3-(4-{[3-(4-Cyclopropylphenyl)-5-(trifluoromethyl)isothiazol-4-yl]methoxy}-3,5-difluorophenyl)propanoic acid] | 200 nM | 116 nM |  |  | 
CCc1ccc(-c2nsc(C(F)(F)F)c2COc2c(F)cc([C@@H]3C[C@H]3CO)cc2F)cc1 [Cpd 219, [(1R,2R)-2-(4-{[3-(4-Ethylphenyl)-5-(trifluoromethyl)isothiazol-4-yl]methoxy}-3,5-difluorophenyl)cyclopropyl]methanol] | 690 nM | 210 nM |  |  | 
